# In ChEMBL document CHEMBL3885881, “DrugMatrix”:
# Species: Rattus norvegicus
# Assay: DrugMatrix - Regimen: Daily Repeat
# Format: toxicity, organism-based, Sprague-Dawley
# Design: regimen Daily Repeat, gender Male, age 6-8 weeks
# Details: in vivo, po, route oral GAVAGE, vehicle .5 % CMC; for ABSOLUTE BASOPHIL / ABSOLUTE EOSINOPHIL / ABSOLUTE LYMPHOCYTE / ABSOLUTE MONOCYTE / ABSOLUTE SEGMENTED NEUTROPHIL / BASOPHIL / EOSINOPHIL / ERYTHROCYTE COUNT / HEMATOCRIT / HEMOGLOBIN / LEUKOCYTE COUNT / LYMPHOCYTE / MEAN CORPUSCULAR HEMOGLOBIN / MEAN CORPUSCULAR HEMOGLOBIN CONCENTRATION / MEAN CORPUSCULAR VOLUME / MONOCYTE / NEUTROPHIL / NUCLEATED RED BLOOD CELLS / PLATELET COUNT: tissue Blood; for ALANINE AMINOTRANSFERASE / ALBUMIN / ALKALINE PHOSPHATASE / ASPARTATE AMINOTRANSFERASE / BLOOD UREA NITROGEN / CARBON DIOXIDE / CHLORIDE / CHOLESTEROL / CREATINE PHOSPHOKINASE / CREATININE / GLUCOSE / LACTATE DEHYDROGENASE / LIPASE / PHOSPHORUS / POTASSIUM / SODIUM / TOTAL BILIRUBIN / TOTAL PROTEIN / URIC ACID: tissue Plasma
# [1] = 10 mg/kg, 72 h, dose level Low, time 3 day
# [2] = 10 mg/kg, 120 h, dose level Low, time 5 day
# [3] = 1500 mg/kg, 72 h, dose level High, time 3 day
# [4] = 1500 mg/kg, 120 h, dose level High, time 5 day
structure (smiles),measurement,setting,value
Cc1ccc(S(=O)(=O)NC(=O)NN2CC3CCCC3C2)cc1 (configuration not stated) [GLICLAZIDE],ABSOLUTE BASOPHIL,[1],0 CELLS/uL
same,ABSOLUTE EOSINOPHIL,[1],0 CELLS/uL
same,ABSOLUTE LYMPHOCYTE,[1],14055.67 CELLS/uL
same,ABSOLUTE MONOCYTE,[1],174.33 CELLS/uL
same,ABSOLUTE SEGMENTED NEUTROPHIL,[1],3203.33 CELLS/uL
same,BASOPHIL,[1],0%
same,EOSINOPHIL,[1],0%
same,ERYTHROCYTE COUNT,[1],5.24 x10E6/uL
same,HEMATOCRIT,[1],35.87%
same,HEMOGLOBIN,[1],13.1 G/DL
same,LEUKOCYTE COUNT,[1],17.43 x10E3/uL
same,LYMPHOCYTE,[1],80.33%
same,MEAN CORPUSCULAR HEMOGLOBIN,[1],25.37 pg
same,MEAN CORPUSCULAR HEMOGLOBIN CONCENTRATION,[1],36.67 G/DL
same,MEAN CORPUSCULAR VOLUME,[1],70.43 fL
same,MONOCYTE,[1],1%
same,NEUTROPHIL,[1],18.67%
same,NUCLEATED RED BLOOD CELLS,[1],7 /100WBC
same,PLATELET COUNT,[1],1164.33 x10E3/uL
same,ALANINE AMINOTRANSFERASE,[1],49.67 u/L
same,ALBUMIN,[1],4.1 G/DL
same,ALKALINE PHOSPHATASE,[1],346.33 u/L
same,ASPARTATE AMINOTRANSFERASE,[1],96.67 u/L
same,BLOOD UREA NITROGEN,[1],16 mg/dL
same,CARBON DIOXIDE,[1],25 mmol/L
same,CHLORIDE,[1],100.33 MEQ/L
same,CHOLESTEROL,[1],66.67 mg/dL
same,CREATINE PHOSPHOKINASE,[1],653 u/L
same,CREATININE,[1],0.19 mg/dL
same,GLUCOSE,[1],179.33 mg/dL
same,LACTATE DEHYDROGENASE,[1],157.33 u/L
same,LIPASE,[1],10 u/L
same,PHOSPHORUS,[1],13.27 mg/dL
same,POTASSIUM,[1],6.4 MEQ/L
same,SODIUM,[1],142.3 MEQ/L
same,TOTAL BILIRUBIN,[1],0.27 mg/dL
same,TOTAL PROTEIN,[1],5.77 G/DL
same,URIC ACID,[1],2.23 mg/dL
same,ABSOLUTE BASOPHIL,[2],0 CELLS/uL
same,ABSOLUTE EOSINOPHIL,[2],0 CELLS/uL
same,ABSOLUTE LYMPHOCYTE,[2],12400.33 CELLS/uL
same,ABSOLUTE MONOCYTE,[2],0 CELLS/uL
same,ABSOLUTE SEGMENTED NEUTROPHIL,[2],2133 CELLS/uL
same,BASOPHIL,[2],0%
same,EOSINOPHIL,[2],0%
same,ERYTHROCYTE COUNT,[2],5.84 x10E6/uL
same,HEMATOCRIT,[2],35.33%
same,HEMOGLOBIN,[2],14.07 G/DL
same,LEUKOCYTE COUNT,[2],14.53 x10E3/uL
same,LYMPHOCYTE,[2],86%
same,MEAN CORPUSCULAR HEMOGLOBIN,[2],24.13 pg
same,MEAN CORPUSCULAR HEMOGLOBIN CONCENTRATION,[2],39.8 G/DL
same,MEAN CORPUSCULAR VOLUME,[2],60.6 fL
same,MONOCYTE,[2],0%
same,NEUTROPHIL,[2],14%
same,NUCLEATED RED BLOOD CELLS,[2],0 /100WBC
same,PLATELET COUNT,[2],1074.33 x10E3/uL
same,ALANINE AMINOTRANSFERASE,[2],49 u/L
same,ALBUMIN,[2],4.23 G/DL
same,ALKALINE PHOSPHATASE,[2],441 u/L
same,ASPARTATE AMINOTRANSFERASE,[2],113.67 u/L
same,BLOOD UREA NITROGEN,[2],15.33 mg/dL
same,CARBON DIOXIDE,[2],25 mmol/L
same,CHLORIDE,[2],101.33 MEQ/L
same,CHOLESTEROL,[2],63.33 mg/dL
same,CREATINE PHOSPHOKINASE,[2],738.33 u/L
same,CREATININE,[2],0.19 mg/dL
same,GLUCOSE,[2],153.67 mg/dL
same,LACTATE DEHYDROGENASE,[2],958 u/L
same,LIPASE,[2],9 u/L
same,PHOSPHORUS,[2],11.2 mg/dL
same,POTASSIUM,[2],6.16 MEQ/L
same,SODIUM,[2],141.57 MEQ/L
same,TOTAL BILIRUBIN,[2],0.2 mg/dL
same,TOTAL PROTEIN,[2],5.97 G/DL
same,URIC ACID,[2],1.43 mg/dL
same,ABSOLUTE BASOPHIL,[3],0 CELLS/uL
same,ABSOLUTE EOSINOPHIL,[3],66 CELLS/uL
same,ABSOLUTE LYMPHOCYTE,[3],14884.33 CELLS/uL
same,ABSOLUTE MONOCYTE,[3],365.67 CELLS/uL
same,ABSOLUTE SEGMENTED NEUTROPHIL,[3],2117.33 CELLS/uL
same,BASOPHIL,[3],0%
same,EOSINOPHIL,[3],0.33%
same,ERYTHROCYTE COUNT,[3],6.45 x10E6/uL
same,HEMATOCRIT,[3],39.57%
same,HEMOGLOBIN,[3],15.77 G/DL
same,LEUKOCYTE COUNT,[3],17.43 x10E3/uL
same,LYMPHOCYTE,[3],85.33%
same,MEAN CORPUSCULAR HEMOGLOBIN,[3],24.4 pg
same,MEAN CORPUSCULAR HEMOGLOBIN CONCENTRATION,[3],39.83 G/DL
same,MEAN CORPUSCULAR VOLUME,[3],61.27 fL
same,MONOCYTE,[3],2%
same,NEUTROPHIL,[3],12.33%
same,NUCLEATED RED BLOOD CELLS,[3],0 /100WBC
same,PLATELET COUNT,[3],1204.33 x10E3/uL
same,ALANINE AMINOTRANSFERASE,[3],29 u/L
same,ALBUMIN,[3],4.03 G/DL
same,ALKALINE PHOSPHATASE,[3],337.33 u/L
same,ASPARTATE AMINOTRANSFERASE,[3],85.67 u/L
same,BLOOD UREA NITROGEN,[3],17.33 mg/dL
same,CARBON DIOXIDE,[3],26.33 mmol/L
same,CHLORIDE,[3],100.67 MEQ/L
same,CHOLESTEROL,[3],39.33 mg/dL
same,CREATINE PHOSPHOKINASE,[3],319 u/L
same,CREATININE,[3],0.14 mg/dL
same,GLUCOSE,[3],104.67 mg/dL
same,LACTATE DEHYDROGENASE,[3],118.33 u/L
same,LIPASE,[3],8.67 u/L
same,PHOSPHORUS,[3],11.03 mg/dL
same,POTASSIUM,[3],6.27 MEQ/L
same,SODIUM,[3],141.67 MEQ/L
same,TOTAL BILIRUBIN,[3],0.13 mg/dL
same,TOTAL PROTEIN,[3],5.43 G/DL
same,URIC ACID,[3],2.57 mg/dL
same,ABSOLUTE BASOPHIL,[4],0 CELLS/uL
same,ABSOLUTE EOSINOPHIL,[4],0 CELLS/uL
same,ABSOLUTE LYMPHOCYTE,[4],11101.33 CELLS/uL
same,ABSOLUTE MONOCYTE,[4],80.33 CELLS/uL
same,ABSOLUTE SEGMENTED NEUTROPHIL,[4],1151.67 CELLS/uL
same,BASOPHIL,[4],0%
same,EOSINOPHIL,[4],0%
same,ERYTHROCYTE COUNT,[4],6.29 x10E6/uL
same,HEMATOCRIT,[4],37%
same,HEMOGLOBIN,[4],14.7 G/DL
same,LEUKOCYTE COUNT,[4],12.33 x10E3/uL
same,LYMPHOCYTE,[4],90%
same,MEAN CORPUSCULAR HEMOGLOBIN,[4],23.4 pg
same,MEAN CORPUSCULAR HEMOGLOBIN CONCENTRATION,[4],39.8 G/DL
same,MEAN CORPUSCULAR VOLUME,[4],58.83 fL
same,MONOCYTE,[4],0.67%
same,NEUTROPHIL,[4],9.33%
same,NUCLEATED RED BLOOD CELLS,[4],0 /100WBC
same,PLATELET COUNT,[4],1131.67 x10E3/uL
same,ALANINE AMINOTRANSFERASE,[4],46 u/L
same,ALBUMIN,[4],4.17 G/DL
same,ALKALINE PHOSPHATASE,[4],318 u/L
same,ASPARTATE AMINOTRANSFERASE,[4],93 u/L
same,BLOOD UREA NITROGEN,[4],21.33 mg/dL
same,CARBON DIOXIDE,[4],23.33 mmol/L
same,CHLORIDE,[4],103.67 MEQ/L
same,CHOLESTEROL,[4],44.67 mg/dL
same,CREATINE PHOSPHOKINASE,[4],248.33 u/L
same,CREATININE,[4],0.18 mg/dL
same,GLUCOSE,[4],101.67 mg/dL
same,LACTATE DEHYDROGENASE,[4],168.33 u/L
same,LIPASE,[4],10 u/L
same,PHOSPHORUS,[4],10.43 mg/dL
same,POTASSIUM,[4],6.21 MEQ/L
same,SODIUM,[4],144.47 MEQ/L
same,TOTAL BILIRUBIN,[4],0.1 mg/dL
same,TOTAL PROTEIN,[4],5.7 G/DL
same,URIC ACID,[4],1.7 mg/dL
